The source of these data is the supplement of paper PMC11208160.

The data set in a line: recombinant UMI read abundance after kanamycin selection (control-corrected) (log10(CPM+1)); higher = more efficient recombination; extreme values may be limits of the assay; sequences stand for … in AGTGCAGAGAAAATCGGCCAGTTTTCTCTGCCTGCAGTCCGCATGCCGTGGGACCCCTTGGGTTCTAACCTGTTGCCTAGATTTATGCAGCGGACTGCCTTTCTCCCAAAGTGATAAACCGG…AGGTTGGTTTCACT; site = the 11-nt donor. The method in brief:
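Sequenced counts of recombinant UMIs were turned into CPM, averaged across replicates and scaled with control-derived factors. The reported figure is log10(CPM+1). Those UMIs, each 12 nt long, tagged donor and donor-binding-loop pairs on a plasmid with a promoterless kanamycin gene, screened as a pool in Escherichia coli with IPTG (0.07 mM) plus kanamycin or without selection.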
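Also: IS621 bridge recombinase in Escherichia coli cells against a fixed T5 target plasmid.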

As for “GCTAGAACATGGACCGGTTTTCCCGGTAATCCGTATTTGGC (site GGTAGAACTGC)”, the “recombinant UMI read abundance (log10)” value was determined as 0. For the sequence “GCTAGAACATGGACCGGTTTTCCCGGTAATCCGTATTTGGC (site GTTAGAACTGC)”, the “recombinant UMI read abundance (log10)” value came to 0. As to “GCTAGCACATGGACCGGTTTTCCCGGTAATCCGTATTTGCT (site GCTAGCACTAG)”, the “recombinant UMI read abundance (log10)” value is 1.64.

For “GCTAGTGCATGGACCGGTTTTCCCGGTAATCCGTATTTGCC (site GCTAATGCTGG)”, the “recombinant UMI read abundance (log10)” value is 0. For the sequence “GCTAGTGCATGGACCGGTTTTCCCGGTAATCCGTATTTGCC (site GCTACTGCTGG)”, the “recombinant UMI read abundance (log10)” value is 0.

Take “GCTAGTGCATGGACCGGTTTTCCCGGTAATCCGTATTTGCC (site GCTAGTGCTGG)”: the “recombinant UMI read abundance (log10)” value turned out to be 1.86. The figure for “GCTAGTGCATGGACCGGTTTTCCCGGTAATCCGTATTTGCC (site GCTATTGCTGG)” is 0. “GCTATCACATGGACCGGTTTTCCCGGTAATCCGTATTTGGG (site GCTATCACTCC)”: the “recombinant UMI read abundance (log10)” value was determined as 0.147. Consider “GCTATTGCATGGACCGGTTTTCCCGGTAATCCGTATTTGCC (site GCTAATGCTGG)”, for which the “recombinant UMI read abundance (log10)” value came out at 0. The figure for “GCTATTGCATGGACCGGTTTTCCCGGTAATCCGTATTTGCC (site GCTACTGCTGG)” is 0; for “GCTATTGCATGGACCGGTTTTCCCGGTAATCCGTATTTGCC (site GCTAGTGCTGG)” it is 0.00747. The figure for “GCTATTGCATGGACCGGTTTTCCCGGTAATCCGTATTTGCC (site GCTATTGCTGG)” is 0.891; for “GCTCACCCATGGACCGGTTTTCCCGGTAATCCGTATTTGCT (site GCTCACCCTAG)” it is 0; for “GCTCATTCATGGACCGGTTTTCCCGGTAATCCGTATTTGAG (site GCTCATTCTCT)” it is 1.39. Turning to “GCTCGCGCATGGACCGGTTTTCCCGGTAATCCGTATTTGTG (site GCTCGCGCTCA)”, the “recombinant UMI read abundance (log10)” value was 0.397. Turning to “GCTCGTCCATGGACCGGTTTTCCCGGTAATCCGTATTTGGG (site GCTCGTCCTCC)”, the “recombinant UMI read abundance (log10)” value was 0.0164. For the sequence “GCTCTATCATGGACCGGTTTTCCCGGTAATCCGTATTTGCT (site GCTCTATCTAG)”, the “recombinant UMI read abundance (log10)” value was 2.04.

For the sequence “GCTGCGCCATGGACCGGTTTTCCCGGTAATCCGTATTTGGA (site GCTGCGCCTTC)”, the “recombinant UMI read abundance (log10)” value amounted to 0.0238. “GCTGGGACATGGACCGGTTTTCCCGGTAATCCGTATTTGTG (site GCTGGGACTCA)”: the “recombinant UMI read abundance (log10)” value stood at 0.944. For the sequence “GCTGGTACATGGACCGGTTTTCCCGGTAATCCGTATTTGCG (site GCTGGTACTCG)”, the “recombinant UMI read abundance (log10)” value was 1.68. With “GCTGTGTCATGGACCGGTTTTCCCGGTAATCCGTATTTGCG (site GCTGTGTCTCG)” the figure was 2.07. For the sequence “GCTTAAGCATGGACCGGTTTTCCCGGTAATCCGTATTTGCC (site GCTTAAGCTGG)”, the “recombinant UMI read abundance (log10)” value was 0.666.

For the sequence “GCTTACACATGGACCGGTTTTCCCGGTAATCCGTATTTGCG (site GCTTACACTCG)”, the “recombinant UMI read abundance (log10)” value turned out to be 1.72. For “GCTTACCCATGGACCGGTTTTCCCGGTAATCCGTATTTGAT (site GCTTACCCTAT)”, the “recombinant UMI read abundance (log10)” value was 0.0241. Regarding “GCTTACCCATGGACCGGTTTTCCCGGTAATCCGTATTTGAT (site GCTTCCCCTAT)”, the “recombinant UMI read abundance (log10)” value was 0.

For “GCTTACCCATGGACCGGTTTTCCCGGTAATCCGTATTTGAT (site GCTTGCCCTAT)”, the “recombinant UMI read abundance (log10)” value amounted to 0.0186. Regarding “GCTTACCCATGGACCGGTTTTCCCGGTAATCCGTATTTGAT (site GCTTTCCCTAT)”, the “recombinant UMI read abundance (log10)” value stood at 0.

In the case of “GCTTATCCATGGACCGGTTTTCCCGGTAATCCGTATTTGCT (site GATTATCCTAG)”, the “recombinant UMI read abundance (log10)” value came out at 0. Take “GCTTATCCATGGACCGGTTTTCCCGGTAATCCGTATTTGCT (site GCTTATCCTAG)”: the “recombinant UMI read abundance (log10)” value came to 1.03. With “GCTTATCCATGGACCGGTTTTCCCGGTAATCCGTATTTGCT (site GGTTATCCTAG)” the figure was 0; with “GCTTATCCATGGACCGGTTTTCCCGGTAATCCGTATTTGCT (site GTTTATCCTAG)”, 0. Regarding “GCTTCCGCATGGACCGGTTTTCCCGGTAATCCGTATTTGTT (site GCTTCCGCTAA)”, the “recombinant UMI read abundance (log10)” value turned out to be 1.48. With “GCTTCTACATGGACCGGTTTTCCCGGTAATCCGTATTTGTA (site GCTTCTACTTA)”, the “recombinant UMI read abundance (log10)” value came out at 0.541. On to “GCTTGACCATGGACCGGTTTTCCCGGTAATCCGTATTTGAT (site GCTTGACCTAT)”, for which the “recombinant UMI read abundance (log10)” value was determined as 0.00317.

For the sequence “GCTTGACCATGGACCGGTTTTCCCGGTAATCCGTATTTGAT (site GCTTGCCCTAT)”, the “recombinant UMI read abundance (log10)” value worked out at 0.00707. In the case of “GCTTGACCATGGACCGGTTTTCCCGGTAATCCGTATTTGAT (site GCTTGGCCTAT)”, the “recombinant UMI read abundance (log10)” value came to 0.117. “GCTTGACCATGGACCGGTTTTCCCGGTAATCCGTATTTGAT (site GCTTGTCCTAT)”: the “recombinant UMI read abundance (log10)” value was found to be 0.00374. With “GCTTGCCCATGGACCGGTTTTCCCGGTAATCCGTATTTGAA (site GCTTGCCCTAT)”, the “recombinant UMI read abundance (log10)” value is 0. As for “GCTTGCCCATGGACCGGTTTTCCCGGTAATCCGTATTTGAA (site GCTTGCCCTCT)”, the “recombinant UMI read abundance (log10)” value amounted to 0.00774. Take “GCTTGCCCATGGACCGGTTTTCCCGGTAATCCGTATTTGAA (site GCTTGCCCTGT)”: the “recombinant UMI read abundance (log10)” value turned out to be 0. As for “GCTTGCCCATGGACCGGTTTTCCCGGTAATCCGTATTTGAA (site GCTTGCCCTTT)”, the “recombinant UMI read abundance (log10)” value was determined as 0.0264. Regarding “GCTTGCCCATGGACCGGTTTTCCCGGTAATCCGTATTTGAC (site GCTTGCCCTAT)”, the “recombinant UMI read abundance (log10)” value is 0. On to “GCTTGCCCATGGACCGGTTTTCCCGGTAATCCGTATTTGAC (site GCTTGCCCTCT)”, for which the “recombinant UMI read abundance (log10)” value was 0.0563. As for “GCTTGCCCATGGACCGGTTTTCCCGGTAATCCGTATTTGAC (site GCTTGCCCTGT)”, the “recombinant UMI read abundance (log10)” value turned out to be 0.

Turning to “GCTTGCCCATGGACCGGTTTTCCCGGTAATCCGTATTTGAC (site GCTTGCCCTTT)”, the “recombinant UMI read abundance (log10)” value came out at 0.0621. Consider “GCTTGGACATGGACCGGTTTTCCCGGTAATCCGTATTTGGA (site GCTTGGACTTC)”, for which the “recombinant UMI read abundance (log10)” value came out at 0.32. Take “GGAAATCCATGGACCGGTTTTCCCGGTAATCCGTATTTGGG (site GGAAATCCTCC)”: the “recombinant UMI read abundance (log10)” value stood at 0.00368. With “GGAACGTCATGGACCGGTTTTCCCGGTAATCCGTATTTGTT (site GGAACGTCTAA)” the figure was 0.993; with “GGAACGTCATGGACCGGTTTTCCCGGTAATCCGTATTTGTT (site GGCACGTCTAA)”, 0.00816.

Turning to “GGAACGTCATGGACCGGTTTTCCCGGTAATCCGTATTTGTT (site GGGACGTCTAA)”, the “recombinant UMI read abundance (log10)” value was 0.28.

On to “GGAACGTCATGGACCGGTTTTCCCGGTAATCCGTATTTGTT (site GGTACGTCTAA)”, for which the “recombinant UMI read abundance (log10)” value worked out at 0.00512. On to “GGAACTACATGGACCGGTTTTCCCGGTAATCCGTATTTGCC (site GGAACTACTGG)”, for which the “recombinant UMI read abundance (log10)” value amounted to 1.05. With “GGAAGCACATGGACCGGTTTTCCCGGTAATCCGTATTTGGG (site GGAAGCACTCC)” the figure was 0.0218. The figure for “GGAAGTACATGGACCGGTTTTCCCGGTAATCCGTATTTGAC (site GGAAGTACTGT)” is 2.57; for “GGAAGTGCATGGACCGGTTTTCCCGGTAATCCGTATTTGAA (site GGAAGTGCTTT)” it is 2.27; for “GGAATCTCATGGACCGGTTTTCCCGGTAATCCGTATTTGAA (site GGAATCTCTTT)” it is 2.55. Take “GGAATGTCATGGACCGGTTTTCCCGGTAATCCGTATTTGTT (site GGAATGTCTAA)”: the “recombinant UMI read abundance (log10)” value worked out at 2.44.

Take “GGAGACGCATGGACCGGTTTTCCCGGTAATCCGTATTTGGT (site GGAGACGCTAC)”: the “recombinant UMI read abundance (log10)” value was 0.461.

Regarding “GGAGCCTCATGGACCGGTTTTCCCGGTAATCCGTATTTGAC (site GGAGCCTCTGT)”, the “recombinant UMI read abundance (log10)” value was found to be 2.15. As for “GGAGCTACATGGACCGGTTTTCCCGGTAATCCGTATTTGAG (site GGAGCTACTCT)”, the “recombinant UMI read abundance (log10)” value turned out to be 0.606. With “GGAGGCGCATGGACCGGTTTTCCCGGTAATCCGTATTTGCC (site GGAGGCGCTGG)” the figure was 3.44; with “GGAGGGGCATGGACCGGTTTTCCCGGTAATCCGTATTTGGT (site GGAGAGGCTAC)”, 0.335; with “GGAGGGGCATGGACCGGTTTTCCCGGTAATCCGTATTTGGT (site GGAGCGGCTAC)”, 0.00457. In the case of “GGAGGGGCATGGACCGGTTTTCCCGGTAATCCGTATTTGGT (site GGAGGGGCTAC)”, the “recombinant UMI read abundance (log10)” value is 0.699. With “GGAGGGGCATGGACCGGTTTTCCCGGTAATCCGTATTTGGT (site GGAGTGGCTAC)” the figure was 0.0205.

On to “GGAGTGGCATGGACCGGTTTTCCCGGTAATCCGTATTTGGG (site GGAGTGGCTAC)”, for which the “recombinant UMI read abundance (log10)” value came out at 0.497. With “GGAGTGGCATGGACCGGTTTTCCCGGTAATCCGTATTTGGG (site GGAGTGGCTCC)”, the “recombinant UMI read abundance (log10)” value was found to be 0.779.

Turning to “GGAGTGGCATGGACCGGTTTTCCCGGTAATCCGTATTTGGG (site GGAGTGGCTGC)”, the “recombinant UMI read abundance (log10)” value amounted to 0.
